In patent publication US10111890B2, “9-aminomethyl minocycline compounds and uses thereof” (Paratek Pharmaceuticals, Inc., priority 2016, dated 2018):

Tested on: ABSSSI known or suspected to be due to Gram-positive pathogens
Assay: Phase 3 oral omadacycline vs oral linezolid in ABSSSI: Early Clinical Response 48-72 hours after first dose
Assay type: in vivo, human
Settings: for Early Clinical Success, %: micro-mITT, % of N1
[1] = 48-72 hours after first dose, mITT population
[2] = Cellulitis/erysipelas, actual type, 48-72 hours, mITT
[3] = Cellulitis/erysipelas, as randomized, 48-72 hours, mITT
[4] = Major Abscess, actual type, 48-72 hours, mITT
[5] = Major Abscess, as randomized, 48-72 hours, mITT
[6] = Wound Infection, actual type, 48-72 hours, mITT
[7] = Wound Infection, as randomized, 48-72 hours, mITT

CC(=O)NCC1CN(c2ccc(N3CCOCC3)c(F)c2)C(=O)O1 (stereo not shown) [Linezolid, N-[[3-(3-fluoro-4-morpholinophenyl)-2-oxooxazolidin-5-yl]methyl]acetamide, reference compound]
Early Clinical Response: Clinical Failure [1]: 32 (8.9) n (%)
Early Clinical Response: Clinical Failure or Indeterminate [1]: 63 (17.5) n (%)
Early Clinical Response: Indeterminate [1]: 31 (8.6) n (%)
Early Clinical Response: Clinical Success (48-72 hours after first dose, mITT population (N = 360 per arm)): 297 (82.5) n (%)
Early Clinical Response: Clinical Success (Cellulitis/erysipelas, actual type of infection, 48-72 hours, mITT): 65 (77.4) n (%)
Early Clinical Response: Clinical Failure [2]: 12 (14.3) n (%)
Early Clinical Response: Clinical Failure or Indeterminate [2]: 19 (22.6) n (%)
Early Clinical Response: Indeterminate [2]: 7 (8.3) n (%)
Early Clinical Response: Clinical Failure [3]: 12 (14.3) n (%)
Early Clinical Response: Clinical Failure or Indeterminate [3]: 19 (22.6) n (%)
Early Clinical Response: Indeterminate [3]: 7 (8.3) n (%)
Early Clinical Response: Clinical Success (Cellulitis/erysipelas, type of infection as randomized, 48-72 hours, mITT): 65 (77.4) n (%)
Early Clinical Response: Clinical Success (Major Abscess, actual type of infection, 48-72 hours, mITT): 55 (88.7) n (%)
Early Clinical Response: Clinical Failure [4]: 4 (6.5) n (%)
Early Clinical Response: Clinical Failure or Indeterminate [4]: 7 (11.3) n (%)
Early Clinical Response: Indeterminate [4]: 3 (4.8) n (%)
Early Clinical Response: Clinical Failure [5]: 4 (6.5) n (%)
Early Clinical Response: Clinical Failure or Indeterminate [5]: 7 (11.3) n (%)
Early Clinical Response: Indeterminate [5]: 3 (4.8) n (%)
Early Clinical Response: Clinical Success (Major Abscess, type of infection as randomized, 48-72 hours, mITT): 55 (88.7) n (%)
Early Clinical Response: Clinical Success (Wound Infection, actual type of infection, 48-72 hours, mITT): 177 (82.7) n (%)
Early Clinical Response: Clinical Failure [6]: 16 (7.5) n (%)
Early Clinical Response: Clinical Failure or Indeterminate [6]: 37 (17.3) n (%)
Early Clinical Response: Indeterminate [6]: 21 (9.8) n (%)
Early Clinical Response: Clinical Failure [7]: 16 (7.5) n (%)
Early Clinical Response: Clinical Failure or Indeterminate [7]: 37 (17.3) n (%)
Early Clinical Response: Indeterminate [7]: 21 (9.8) n (%)
Early Clinical Response: Clinical Success (Wound Infection, type of infection as randomized, 48-72 hours, mITT): 177 (82.7) n (%)
Early Clinical Success, % (baseline pathogen Clostridium perfringens, 48-72 hours after first dose): (100.0) %
Early Clinical Success, % (baseline pathogen Enterobacter cloacae, 48-72 hours after first dose): (83.3) %
Early Clinical Success, % (baseline pathogen Enterococcus faecalis VRE, 48-72 hours after first dose): (100.0) %
Early Clinical Success, % (baseline pathogen Enterococcus faecalis VSE, 48-72 hours after first dose): (60.0) %
Early Clinical Success, % (baseline pathogen Enterococcus faecalis, 48-72 hours after first dose): (66.7) %
Early Clinical Success, % (baseline pathogen Enterococcus faecium VSE, 48-72 hours after first dose): (100.0) %
Early Clinical Success, % (baseline pathogen Enterococcus faecium, 48-72 hours after first dose): (100.0) %
Early Clinical Success, % (baseline pathogen Escherichia coli, 48-72 hours after first dose): (100.0) %
Early Clinical Success, % (baseline pathogen Finegoldia magna, 48-72 hours after first dose): (0.0) %
Early Clinical Success, % (baseline pathogen Klebsiella pneumoniae, 48-72 hours after first dose): (83.3) %
Early Clinical Success, % (baseline pathogen MRSA, 48-72 hours after first dose): (88.8) %
Early Clinical Success, % (baseline pathogen MSSA, 48-72 hours after first dose): (79.2) %
Early Clinical Success, % (baseline pathogen Prevotella denticola, 48-72 hours after first dose): (100.0) %
Early Clinical Success, % (baseline pathogen Prevotella melaninogenica, 48-72 hours after first dose): (100.0) %
Early Clinical Success, % (baseline pathogen Staphylococcus aureus, 48-72 hours after first dose): (83.3) %
Early Clinical Success, % (baseline pathogen Streptococcus agalactiae, 48-72 hours after first dose): (50.0) %
Early Clinical Success, % (baseline pathogen Streptococcus anginosus group, 48-72 hours after first dose): (80.0) %
Early Clinical Success, % (baseline pathogen Streptococcus anginosus, 48-72 hours after first dose): (85.0) %
Early Clinical Success, % (baseline pathogen Streptococcus constellatus, 48-72 hours after first dose): (100.0) %
Early Clinical Success, % (baseline pathogen Streptococcus intermedius, 48-72 hours after first dose): (75.0) %
Early Clinical Success, % (baseline pathogen Streptococcus pyogenes, 48-72 hours after first dose): (81.3) %
